The numbers were not newly measured in patent US6475978B1, “Method of making water-softening and detergent compositions” (Unilever Home & Personal Care USA a division of Conopco, …, priority 1999, dated 2002), which cites them from elsewhere.

Read-outs that look alike come from different tables or passages of the source.

The conditions of this series: at 20° C.
Where [1] appears, read: materials with solubility of less than 50 g per 100 g water.

As for `O=BO[O-].[Na+]` [Sodium perborate anhydrous], the “Water Solubility” value under setting [1] is on record as 3.7 g/100 g.
For `O=P(O)(O)OP(=O)(O)OP(=O)(O)O` [Sodium tripolyphosphate anhydrous], under setting [1], the “Water Solubility” value was 15 g/100 g.
As for `NC(N)=O` [Urea], the “Water Solubility” value (materials with solubility of at least 50 g per 100 g water) is given as over 100 g/100 g.
